Consider five molecules from patent US9970929B2, “Voriconazole immunoassays” (ARK Diagnostics, Inc., priority 2013, dated 2018).

One assay deals with antibody Ab15461(P3). Kind of assay: homogeneous enzyme immunoassay for voriconazole (conjugate VOR-8 G6PDH, HITACHI 917), calibration and crossreactivity. Format: binding, rabbit. As to conditions: for cross reaction with antibody Ab15461(P3), in words: summary of Tables 2 and 3. The text has this:
Antibodies obtained using any of the disclosed techniques are screened or purified not only for their ability to react with voriconazole, but for a low cross-reactivity with potential interfering substances. “Cross-reactivity” may be determined in a quantitative immunoassay by establishing a standard curve using known dilutions of the target analyte, voriconazole. The standard curve is then used to calculate the apparent concentration of the interfering substance present in various known amounts in samples assayed under similar condition. The cross-reactivity can be calculated as the apparent concentration divided by the actual concentration multiplied by 100. A certain immunoassay for determining cross-reactivity is a homogeneous enzyme immunoassay using a wild type G6PDH as described in U.S. Pat. No. 3,817,837 or mutant G6PDH engineered to contain a cysteine per subunit as described in U.S. Pat. Nos. 6,033,890, 6,090,567 and 6,455,288. Furthermore, the cross-reactivity can be determined in the same type of immunoassay in which the antibody will ultimately be used.
Rabbit polyclonal antibody Ab15461(P3) was used to measure a substantial change in enzyme activity, generate a calibration curve, and evaluate assay precision, accuracy and specificity. The antibody was added into the antibody diluent to prepare the antibody reagent. The antibody reagent consisted of antibody as prepared above, buffer, stabilizers, preservatives, and the substrates for the enzyme conjugate nicotinamide adenine dinucleotide (NAD^+) and glucose-6-phosphate. Enzyme conjugate including compound VOR-8 G6PDH was added into the conjugate diluent to prepare the enzyme conjugate reagent. The enzyme conjugate reagent included the conjugate, buffer, stabilizers and preservatives. Enzyme conjugate VOR-8 G6PDH was used with rabbit polyclonal antibody Ab15461(P3) in examples below. This technique is generally applicable to produce polyclonal antibodies to voriconazole derivatives and assess their utility.
The voriconazole antibodies and enzyme conjugates may be used in a homogeneous assay format to detect voriconazole samples. An instrument useful to set up the assay is Hitachi 917 Analyzer (Roche). Voriconazole containing sample is incubated with antibody reagent followed by the addition of the enzyme conjugate reagent. The enzyme conjugate activity decreases upon binding to the antibody. The enzyme conjugate, which is not bound to the antibody, catalyzes the oxidation of glucose 6-phosphate (G6P). The oxidation of G6P is coupled with the reduction of NAD^+ to NADH, which can be measured at 340 nm. The change in the absorbance at 340 nm can be measured spectrophotometrically. The voriconazole concentration in a sample can be measured in terms of G6PDH activity. The increase in the rate at 340 nm is due to the formation of NADH and is proportional to the enzyme conjugate activity. An assay curve is generated using voriconazole added into serum negative for voriconazole. The assay rate increases with increasing the concentration of free drug in the sample.
Voriconazole was dissolved in methanol to give a stock solution of 1000 μg/mL. Pooled human serum was aliquoted in 10 mL portions. Voriconazole stock solution was added to the aliquots of human serum in preparing a series of known concentrations of voriconazole calibrators ranging from 0 to 16 μg/mL. The assay was performed using Enzyme Conjugate Reagent NB051:79 containing conjugate VOR-8 G6PDH and Antibody Reagent NB051:79 containing antibody Ab15461(P3). Calibration curves were generated on the HITACHI 917 automated clinical chemistry analyzer, as described in Example 10 by measuring each level in duplicate.
The major metabolic pathway of voriconazole is an enzymatic oxidation of voriconazole. […] The voriconazole metabolite, N-oxide voriconazole was tested in the immunoassay for potential cross reactivity. […]

The next assay has as its system antifungal activity. The note with it: in vitro, versus voriconazole; cited from earlier work.
[1] abbreviates: antifungal triazole 20 μg/mL added to voriconazole 10 μg/mL in human serum.

`OC(Cn1cncn1)(Cn1cncn1)c1ccc(F)cc1F` [Fluconazole]: the “Cross-reactivity (%)” value in the assay on antibody Ab15461(P3) (setting [1]) was 2.7%. Also, in the assay on antibody Ab15461(P3), the “cross reaction with antibody Ab15461(P3), in words” value (shortened to “cross reaction”) is given as “did not significantly crossreact”.
For `CCC(C)n1ncn(-c2ccc(N3CCN(c4ccc(OCC5COC(Cn6cncn6)(c6ccc(Cl)cc6Cl)O5)cc4)CC3)cc2)c1=O` (stereo not drawn) [Itrconazole, Itraconazole], in the assay with antibody Ab15461(P3) (setting [1]), the “Cross-reactivity (%)” value turned out to be 1.2%. In addition, in the assay on antibody Ab15461(P3), the “cross reaction” value is listed as “did not significantly crossreact”.
As to `CC[C@@H]([C@H](C)O)n1ncn(-c2ccc(N3CCN(c4ccc(OC[C@@H]5CO[C@@](Cn6cncn6)(c6ccc(F)cc6F)C5)cc4)CC3)cc2)c1=O` [Posaconazole], the “Cross-reactivity (%)” value in the assay with antibody Ab15461(P3) (setting [1]) is given as −2.5%. In addition, the “cross reaction” value in the assay on antibody Ab15461(P3) is given as “did not significantly crossreact”.
With `C[C@@H](c1nc[n+]([O-])cc1F)[C@](O)(Cn1cncn1)c1ccc(F)cc1F` [Vor-N-Oxide, 4-((2S,3R)-3-(2,4-difluorophenyl)-3-hydroxy-4-(1H-1,2,4-triazol-1-yl)butan-2-yl)-5-fluoropyrimidine 1-oxide], the “antifungal potency, fold less potent than the parent drug” value in the assay with antifungal activity is listed as 100 fold. Moreover, the “Cross-reactivity (%)” value in the assay on antibody Ab15461(P3) (Vor-N-Oxide 5 μg/mL added to voriconazole 10 μg/mL in human serum, 100 × (mean Test − mean Control) ÷ conc. tested) was determined as 6.7%; with antibody Ab15461(P3) (Vor-N-Oxide 15 μg/mL added to voriconazole 10 μg/mL in human serum) it was 6.7%. For the same molecule, in the assay on antibody Ab15461(P3), the “cross reaction” value is given as “does not cross react significantly”.
Take `C[C@@H](c1ncncc1F)[C@](O)(Cn1cncn1)c1ccc(F)cc1F` [Voriconazole, (2R,3S)-2-(2,4-difluorophenyl)-3-(5-fluoro-4-pyrimidinyl)-1-(1H-1,2,4-triazol-1-yl)-2-butanol]: the “Reaction Rate (mA/min) Average of Duplicates” value is on record as 327.2 mA/min in the assay with antibody Ab15461(P3) (voriconazole 1.0 μg/mL calibrator in pooled human serum); 337.4 mA/min in the assay with antibody Ab15461(P3) (voriconazole 2.0 μg/mL calibrator in pooled human serum); 349.6 mA/min with antibody Ab15461(P3) (voriconazole 4.0 μg/mL calibrator in pooled human serum); 362.4 mA/min in the assay with antibody Ab15461(P3) (voriconazole 8.0 μg/mL calibrator in pooled human serum); 380.4 mA/min with antibody Ab15461(P3) (voriconazole 16.0 μg/mL calibrator in pooled human serum).
